Test in all cases: Antibacterial activity, microbroth dilution method (MIC)
A general note: In broth dilution the organism is exposed to a series of concentrations in liquid medium.

In test [1] the test system is Gram-positive Staphylococcus aureus (S. aureus) 29213. It is filed as cell-based. Conditions: Staphylococcus aureus, Gram-positive S. aureus 29213. The source says: (§1) The antibacterial activity from a microbroth dilution method may be presented as the minimum inhibitory concentration (MIC in μg/mL). The MIC value is the lowest concentration of drug which prevents macroscopically visible growth under test conditions.
(§2) Antibacterial activity of test compounds against the super sensitive Gram-negative Escherichia coli (E. coli) BAS849 bacterium, the control Gram-negative E. coli 25922 strain and the Gram-positive Staphylococcus aureus (S. aureus) 29213 bacterium are shown in Table 1.

In test [2] the test system is super sensitive Gram-negative Escherichia coli (E. coli) BAS849. It is filed as cell-based. Conditions: Escherichia coli; super sensitive Gram-negative E. coli BAS849; microbroth dilution; read-out: MIC, E. coli BAS849.
Source text: as §1, §2

Test [3] has as its system control Gram-negative E. coli 25922 strain. It is filed as cell-based, Escherichia coli. Conditions: Escherichia coli.
Source text: as §1, §2

Each structure is given as a SMILES string. Values after ≈ are worked out from the molar mass of the structure shown. Structures can show the parent of a compound that is named as a salt. Some results are limits rather than exact numbers.

MIC data for 17 molecules are collected here from patent US20150038438A1, “ANTIBACTERIAL COMPOUNDS AND METHODS FOR USE” (PTC THERAPEUTICS, INC., priority 2011, published 2015).

Take `Cl.Cn1c(CNC2CC2)cc2cc3c(cc21)CCCc1c-3[nH]c(=O)c(C(=O)O)c1O` [Cpd 36, 10-((cyclopropylamino)methyl)-4-hydroxy-9-methyl-2-oxo-1,2,5,6,7,9-hexahydropyrido[3′,2′:6,7]cyclohepta[1,2-f]indole-3-carboxylic acid hydrochloride]: the MIC (in general, the lowest concentration found to suppress growth) is 3.5 to 12.5 mg/L in test [1], under 1 mg/L in test [2] and 1 to 3.5 mg/L in test [3].

As for `CN1CCC(NCc2cc3cc4c(cc3n2C)CCCc2c-4[nH]c(=O)c(C(=O)O)c2O)CC1.Cl.Cl` [Cpd 157, 4-hydroxy-9-methyl-10-(((1-methylpiperidin-4-yl)amino)methyl)-2-oxo-1,2,5,6,7,9-hexahydropyrido[3′,2′:6,7]cyclohepta[1,2-f]indole-3-carboxylic acid dihydrochloride], the values for the MIC in test [1], in test [2] and in test [3] were 12.5 to 150 mg/L, under 1 mg/L and 1 to 3.5 mg/L, respectively.

Regarding `Cl.Cn1c(CNC2CC2)cc2cc3c(cc21)OCCc1c-3[nH]c(=O)c(C(=O)O)c1O` [Cpd 171, 10-((cyclopropylamino)methyl)-4-hydroxy-9-methyl-2-oxo-2,5,6,9-tetrahydro-1H-pyrido[2′,3′:4,5]oxepino[3,2-f]indole-3-carboxylic acid hydrochloride], the figures for the MIC in test [1], in test [2] and in test [3] were 3.5 to 12.5 mg/L, under 1 mg/L and under 1 mg/L, respectively.

As to `CNCc1cc2cc3c(cc2n1C)C(C)CCc1c-3[nH]c(=O)c(C(=O)O)c1O.Cl` (stereo not drawn) [Cpd 62, 4-hydroxy-7,9-dimethyl-10-((methylamino)methyl)-2-oxo-1,2,5,6,7,9-hexahydropyrido[3′,2′:6,7]cyclohepta[1,2-f]indole-3-carboxylic acid hydrochloride], the results for the MIC in test [1], in test [2] and in test [3] were 12.5 to 150 mg/L, 1 to 3.5 mg/L and 3.5 to 12.5 mg/L, respectively.

`CCCNc1ccc2c(c1)CCCCc1c-2[nH]c(=O)c(C(=O)O)c1O` [Cpd 128, 4-hydroxy-2-oxo-10-(propylamino)-1,2,5,6,7,8-hexahydrobenzo[7,8]cycloocta[1,2-b]pyridine-3-carboxylic acid]: the MIC lay in the range of 3.5 to 12.5 mg/L (≈ 10.2 to 36.5 µM) in test [1], 1 to 3.5 mg/L (≈ 2.92 to 10.2 µM) in test [2] and 12.5 to 150 mg/L (≈ 36.5 to 438 µM) in test [3].

Take `CCNCc1cc2cc3c(cc2n1C)C(C)=CCc1c-3[nH]c(=O)c(C(=O)O)c1O.Cl` [Cpd 70, 10-((ethylamino)methyl)-4-hydroxy-7,9-dimethyl-2-oxo-1,2,5,9-tetrahydropyrido[3′,2′:6,7]cyclohepta[1,2-f]indole-3-carboxylic acid hydrochloride]: the MIC in test [1], in test [2] and in test [3] was 3.5 to 12.5 mg/L each time.

On to `Cn1c2c(c(O)c(C(=O)O)c1=O)CCCc1cc3c(ccn3C)cc1-2` [Cpd 134, 4-hydroxy-1,9-dimethyl-2-oxo-1,2,5,6,7,9-hexahydropyrido[3′,2′:6,7]cyclohepta[1,2-f]indole-3-carboxylic acid], for which the results for the MIC in test [1], in test [2] and in test [3] were 3.5 to 12.5 mg/L (≈ 10.3 to 36.9 µM), under 1 mg/L and 12.5 to 150 mg/L (≈ 36.9 to 443 µM), respectively.

For the molecule `CN(C)Cc1cc2cc3c(cc2n1C)OCCc1c-3[nH]c(=O)c(C(=O)O)c1O.Cl` [Cpd 173, 10-((dimethylamino)methyl)-4-hydroxy-9-methyl-2-oxo-2,5,6,9-tetrahydro-1H-pyrido[2′,3′:4,5]oxepino[3,2-f]indole-3-carboxylic acid hydrochloride], the MIC in test [1] was 12.5 to 150 mg/L; in test [2], under 1 mg/L; in test [3], under 1 mg/L.

Turning to `CCCCCCCNCc1cc2cc3c(cc2n1C)CCCc1c-3[nH]c(=O)c(C(=O)O)c1O.Cl` [Cpd 139, 10-((heptylamino)methyl)-4-hydroxy-9-methyl-2-oxo-1,2,5,6,7,9-hexahydropyrido[3′,2′:6,7]cyclohepta[1,2-f]indole-3-carboxylic acid hydrochloride], the MIC in test [1] was 1 to 3.5 mg/L; in test [2] it was under 1 mg/L; in test [3] it was 12.5 to 150 mg/L.

Regarding `Cl.Cl.Cn1c(CNCCN)cc2cc3c(cc21)OCCc1c-3[nH]c(=O)c(C(=O)O)c1O` [Cpd 180, 10-(((2-aminoethyl)amino)methyl)-4-hydroxy-9-methyl-2-oxo-2,5,6,9-tetrahydro-1H-pyrido[2′,3′:4,5]oxepino[3,2-f]indole-3-carboxylic acid dihydrochloride], the figures for the MIC in test [1], in test [2] and in test [3] were 12.5 to 150 mg/L, 3.5 to 12.5 mg/L and 12.5 to 150 mg/L, respectively.

With `CCCCCCNCc1cc2cc3c(cc2n1C)CCCc1c-3[nH]c(=O)c(C(=O)O)c1O.Cl` [Cpd 138, 10-((hexylamino)methyl)-4-hydroxy-9-methyl-2-oxo-1,2,5,6,7,9-hexahydropyrido[3′,2′:6,7]cyclohepta[1,2-f]indole-3-carboxylic acid hydrochloride], the figures for the MIC in test [1], in test [2] and in test [3] were 1 to 3.5 mg/L, under 1 mg/L and 1 to 3.5 mg/L, respectively.

For the molecule `Cn1ccc2cc3c(c(F)c21)CCCc1c-3[nH]c(=O)c(C(=O)O)c1O` [Cpd 18, 8-fluoro-4-hydroxy-9-methyl-2-oxo-1,2,5,6,7,9-hexahydropyrido[3′,2′:6,7]cyclohepta[1,2-f]indole-3-carboxylic acid], the MIC in test [1] is 1 to 3.5 mg/L (≈ 2.92 to 10.2 µM); in test [2] it was under 1 mg/L; in test [3] it was 3.5 to 12.5 mg/L (≈ 10.2 to 36.5 µM).

Turning to `Cl.Cn1c(CNC2CCC2)cc2cc3c(cc21)CCCc1c-3[nH]c(=O)c(C(=O)O)c1O` [Cpd 23, 10-((cyclobutylamino)methyl)-4-hydroxy-9-methyl-2-oxo-1,2,5,6,7,9-hexahydropyrido[3′,2′:6,7]cyclohepta[1,2-f]indole-3-carboxylic acid hydrochloride], the MIC in test [1] is 3.5 to 12.5 mg/L; in test [2], under 1 mg/L; in test [3], under 1 mg/L.

For the molecule `Cl.Cn1c(CN2CCCCC2)cc2cc3c(cc21)CCCc1c-3[nH]c(=O)c(C(=O)O)c1O` [Cpd 40, 4-hydroxy-9-methyl-2-oxo-10-(piperidin-1-ylmethyl)-1,2,5,6,7,9-hexahydropyrido[3′,2′:6,7]cyclohepta[1,2-f]indole-3-carboxylic acid hydrochloride], the figures for the MIC in test [1], in test [2] and in test [3] were 3.5 to 12.5 mg/L, under 1 mg/L and 1 to 3.5 mg/L, respectively.

Turning to `O=C(O)c1c(O)c2c([nH]c1=O)-c1ccc(N3CCCC3)cc1OCC2` [Cpd 77, 4-hydroxy-2-oxo-9-(pyrrolidin-1-yl)-1,2,5,6-tetrahydrobenzo[2,3]oxepino[4,5-b]pyridine-3-carboxylic acid], the MIC is 3.5 to 12.5 mg/L (≈ 10.2 to 36.5 µM) in test [1], under 1 mg/L in test [2] and 12.5 to 150 mg/L (≈ 36.5 to 438 µM) in test [3].

With `Cn1c2c(cc(C(=O)O)c1=O)CC=Cc1cc3c(ccn3C)cc1-2` [Cpd 130, 1,9-dimethyl-2-oxo-1,2,5,9-tetrahydropyrido[3′,2′:6,7]cyclohepta[1,2-f]indole-3-carboxylic acid], the MIC in test [1] is 12.5 to 150 mg/L (≈ 39 to 468 µM); in test [2] it was under 1 mg/L; in test [3], 3.5 to 12.5 mg/L (≈ 10.9 to 39 µM).

Regarding `N[C@@H]1[C@H]2CN(c3cc(F)c4c(c3)CCCc3c-4[nH]c(=O)c(C(=O)O)c3O)C[C@@H]12` [Cpd 125, 9-((cis,cis)-6-amino-3-azabicyclo[3.1.0]hexan-3-yl)-11-fluoro-4-hydroxy-2-oxo-2,5,6,7-tetrahydro-1H-benzo[6,7]cyclohepta[1,2-b]pyridine-3-carboxylic acid hydrochloride], the values for the MIC in test [1], in test [2] and in test [3] were 12.5 to 150 mg/L, under 1 mg/L and 3.5 to 12.5 mg/L, respectively.
